Tested on: differentiation markers involucrin, transglutaminase-1, filaggrin, and loricrin in human epidermal keratinocytes
Assay: Induction of differentiation markers in human epidermal keratinocytes (real time RT-PCR)
Format: cell-based
Details: especially at the early time point, 24 h post addition of the tested substance
Method: The effect of the extracts obtained in Examples 1 and 2 on the differentiation markers involucrin, transglutaminase-1, filaggrin, and loricrin in human epidermal keratinocytes has been assessed. As control a ceramide mix (10 μM) was used to induce the differentiation markers.
Long term cultured normal human epidermal keratinocytes, NHEK, prepared from neonatal foreskin are cultured in Keratinocyte SFM (Invitrogen, Heidelberg, Germany) supplemented with bovine pituitary extract (Invitrogen, Heidelberg, Germany) and recombinant epidermal growth factor (Invitrogen, Heidelberg, Germany). Cells are propagated up to passage 2 or 3 at 37° C. and 5% CO2. For induction of differentiation NHEKs are seeded in 6-well plates and grown up to confluence and treated with several concentrations of the algae extracts.
Total RNA was isolated using RNeasy Total RNA Kits (Qiagen, Hilden, Germany). The RNA concentration was determined via photometric measurement at 260/280 (Biophotometer, Eppendorf A G, Hamburg, Germany). An aliquot of 100 ng RNA was used for cDNA synthesis. […]
PCR reactions were carried out on an Opticon 1 (MJ Research, Waltham, Mass., USA) using SYBR Green® PCR Master Mix (Applied Biosystems, Darmstadt, Germany). Each sample was analyzed in double employing the universal protocol over 36 cycles. […]

O=[Si]([O-])[O-].[Na+].[Na+] [sodium metasilicate]
expression of the differentiation markers involucrin, filaggrin and transglutaminase-1 (silica samples): substantial up-regulation
